Laboratory results published in patent US20080261895A1 (Wyeth, priority 2006, published 2008).
Several values for one entry are separate records, joined by “and”; a condition that tells them apart may be missing. Equal entries are not always repeated.

Columns and labels:
[1] = Whole blood and plasma radioactivity and partitioning after single oral [14C]DVS, dogs; format: in vivo, beagle dogs; details: single oral 30 mg/kg; for Radioactivity in Plasma, Individual Dogs / Radioactivity in Plasma, Mean ± S.D. / Radioactivity in Whole Blood, Individual Dogs: listed as [^14C]DVS, 30 mg/kg
Method: Male beagle dogs (n=4), weighing between 14.4 and 16.2 kg at the time of dosing (from an in-house colony), were used. For ease of reporting, the animals were designated numbers 5 through 8. Dose preparation, animal dosing and sample collection were performed at Wyeth Research, Pearl River, N.Y.
The oral dosing solution was prepared by suspending 19.0 mg of [^14C]DVS and 4168.3 mg of unlabeled DVS in 270 mL of vehicle (0.25% polysorbate 80, 0.5% methylcellulose in water). The radiochemical purity, specific activity and concentration of [^14C]DVS (bulk drug and dosing solution) were determined using HPLC with radiometric detection. Duplicate aliquots of the dosing solution were taken pre-, mid- and post-dose for the determination of specific activity and radioactivity concentrations of the dosing solution.
The target dose for each animal was 30 mg/kg (free base; 10 mg/mL, 3 mL/kg, 30 μCi/kg) [^14C]DVS via oral gavage. The target dose was selected because it has been used in previous pharmacokinetic studies.
Whole blood (approximately 10 mL), collected into heparinized tubes at 1, 4, 8, and 24 hours post-dose (N=4 for each time point), was analyzed. One mL of blood was transferred to a fresh tube to be used for determination of radioactivity concentrations. Plasma was obtained by centrifugation at 4° C. within two hours of blood collection. Plasma and whole blood samples were shipped on dry ice to Wyeth Research, Biotransformation Division (Collegeville, Pa.) for analysis. Triplicate aliquots of whole blood (200 μL) were placed into combusto-cones and allowed to air dry. These samples were then oxidized and radioactivity content determined. Triplicate aliquots (100 μL) of the plasma samples were analyzed for radioactivity content. The remaining plasma was stored at −70° C. until metabolite analysis.
For each dog, urine and feces were collected separately, with urine collected on dry ice and feces collected at room temperature. Collections were from 0-8 and 8-24 hours for urine and 0-24 hours for feces. Urine and fecal samples were shipped on dry ice to Wyeth Research, Biotransformation Division (Collegeville, Pa.) for analysis. Fecal samples were homogenized in approximately five volumes (v/w) of water. Aliquots of approximately 0.2 grams of the homogenate were placed into combusto-cones, weighed and allowed to air dry. These samples were then oxidized and radioactivity content determined. The remaining urine samples and fecal homogenates were stored at −70° C. until metabolite analysis. Blood samples and fecal homogenates were oxidized in a Model 307 Tri-Carb sample oxidizer, using Carbosorb® E (6 mL) as trapping agent and PermaFluor® E^+ (10 mL) as scintillant. The background reading (average of control blood or fecal samples) was subtracted from each sample reading. Aliquots of urine and plasma were analyzed directly following the addition of 10 mL of Ultima Gold™ scintillation fluid.
(§1) All radioactivity determinations were made using a Tri-Carb Model 3100TR liquid scintillation counter (Packard BioScience, Boston, Mass.) with an Ultima GOl™ or toluene standard curve. Counts per minute (CPM) were converted to disintegrations per minute (DPM) by use of external standards of known radioactivity. The quench of each standard was determined by the transformed spectral index of an external radioactive standard (tSIE). The lower limits of detection were defined as twice background.

[2] = Whole blood and plasma radioactivity and partitioning after single oral [14C]DVS, rats; format: in vivo, Sprague Dawley rats; details: single oral 20 mg/kg; for Radioactivity in Plasma, Individual Rats / Radioactivity in Plasma, Mean ± S.D. / Radioactivity in Whole Blood, Individual Rats: listed as [^14C]DVS, 20 mg/kg
Text: Sprague Dawley rats (12 male and 6 female), weighing between 0.311 and 0.345 kg for males and between 0.263 and 0.311 kg for females at the time of dosing, were used. Animals were given food and water ad libitum. For ease of reporting, the animals were designated numbers 001M through 012M for the male rats and 001F through 006F for the female rats. Three animals from the last time point, for each sex, were housed individually in metabolism cages for the collection of urine and feces. The other animals were housed individually in standard cages.
The oral dosing solution was prepared by combining 86.4 mL of 3.0 mg/mL (2.0 mg/mL, free base) unlabeled DVS solution with 3.6 mL of 4.3 mg/mL (3.0 mg/mL free base) [^14C]DVS solution. Solutions were prepared in 0.25% polysorbate 80, 0.5% methylcellulose in water. The radiochemical purity, specific activity and concentration of [^14C]DVS (bulk drug and dosing solution) were determined using HPLC with radiometric detection. Aliquots of the dosing solution were taken pre-, mid-, and post-dose for the determination of specific activity and radioactivity concentrations of dosing solution.
Whole blood (approximately 5 mL) was collected by cardiac puncture into heparinized tubes at the appropriate time points (1, 4, 8, and 24 hours for male rats, and 1 and 8 hours for female rats, N=3 for each sex at each time point). Triplicate aliquots (200 μL) of whole blood were placed into combusto-cones, weighed and allowed to air dry. These samples were oxidized. The remaining blood was centrifuged at 5000×g and 4° C. for 10 minutes (Model Legend RT centrifuge, Sorvall). The resulting plasma was transferred to fresh tubes and triplicate aliquots (100 μL) were analyzed for radioactivity content. The remaining plasma was stored at −70° C. until metabolite analysis.
Blood samples and fecal homogenates were oxidized in a Model 307 Tri-Carb sample oxidizer, using Carbosorb® E (6 mL) as trapping agent and PermaFluor® E^+ (10 mL) as scintillant. Oxidation efficiency was determined by oxidation of C-Spec-Chec (Perkin Elmer), a standard of known radioactivity, and determined to be 98.7%. The background reading (average of control blood or fecal samples) was subtracted from each sample reading. Aliquots of urine and plasma were analyzed directly following the addition of 10 mL of Ultima Gold™ scintillation fluid.
as §1, with “(Perkin Elmer)” for “(Packard BioScience, Boston, Mass.)”, “Gold™” for “GOl™”

SMILES: CN(C)CC(c1ccc(O)cc1)C1(O)CCCCC1.O=C(O)CCC(=O)O (stereo not shown) [DVS, O-desmethylvenlafaxine succinate]
- Radioactivity in Whole Blood, Mean ± S.D. ([1]; 1 hr): 8.37 ± 1.45 μg equivalents/mL
- Radioactivity in Plasma, Individual Dogs ([1]; 1 hr): 14.6 μg equivalents/mL and 11.5 μg equivalents/mL and 9.56 μg equivalents/mL and 17.5 μg equivalents/mL
- Radioactivity in Plasma, Mean ± S.D. ([1]; 1 hr): 13.3 μg equivalents/mL and 13.3 ± 3.5 μg equivalents/mL
- Radioactivity in Whole Blood, Individual Dogs ([1]; 1 hr): 8.56 μg equivalents/mL and 8.61 μg equivalents/mL and 6.40 μg equivalents/mL and 9.91 μg equivalents/mL
- Radioactivity in Whole Blood, Mean ± S.D. ([1]; 4 hr): 8.58 ± 0.59 μg equivalents/mL
- Radioactivity in Plasma, Individual Dogs ([1]; 4 hr): 17.0 μg equivalents/mL and 16.8 μg equivalents/mL and 16.5 μg equivalents/mL and 17.1 μg equivalents/mL
- Radioactivity in Plasma, Mean ± S.D. ([1]; 4 hr): 16.9 μg equivalents/mL and 16.9 ± 0.3 μg equivalents/mL
- Radioactivity in Whole Blood, Individual Dogs ([1]; 4 hr): 8.16 μg equivalents/mL and 8.03 μg equivalents/mL and 8.82 μg equivalents/mL and 9.30 μg equivalents/mL
- Radioactivity in Whole Blood, Mean ± S.D. ([1]; 8 hr): 3.84 ± 1.01 μg equivalents/mL
- Radioactivity in Plasma, Individual Dogs ([1]; 8 hr): 4.51 μg equivalents/mL and 9.12 μg equivalents/mL and 10.2 μg equivalents/mL and 5.87 μg equivalents/mL
- Radioactivity in Plasma, Mean ± S.D. ([1]; 8 hr): 7.43 μg equivalents/mL and 7.43 ± 2.68 μg equivalents/mL
- Radioactivity in Whole Blood, Individual Dogs ([1]; 8 hr): 3.30 μg equivalents/mL and 3.79 μg equivalents/mL and 5.27 μg equivalents/mL and 2.98 μg equivalents/mL
- Radioactivity in Whole Blood, Mean ± S.D. ([1]; 24 hr): 0.48 ± 0.20 μg equivalents/mL
- Radioactivity in Plasma, Individual Dogs ([1]; 24 hr): 0.66 μg equivalents/mL and 0.86 μg equivalents/mL and 1.14 μg equivalents/mL and 0.56 μg equivalents/mL
- Radioactivity in Plasma, Mean ± S.D. ([1]; 24 hr): 0.81 μg equivalents/mL and 0.81 ± 0.25 μg equivalents/mL
- Radioactivity in Whole Blood, Individual Dogs ([1]; 24 hr): 0.38 μg equivalents/mL and 0.47 μg equivalents/mL and 0.75 μg equivalents/mL and 0.31 μg equivalents/mL
- Radioactivity in Whole Blood, Mean ± S.D. ([2]; 1 hr, female): 6.18 ± 0.74 μg equivalents/mL
- Radioactivity in Plasma, Individual Rats ([2]; 1 hr, female): 9.61 μg equivalents/mL and 8.74 μg equivalents/mL and 11.3 μg equivalents/mL
- Radioactivity in Plasma, Mean ± S.D. ([2]; 1 hr, female): 9.90 μg equivalents/mL and 9.90 ± 1.2 μg equivalents/mL
- Radioactivity in Whole Blood, Individual Rats ([2]; 1 hr, female): 5.63 μg equivalents/mL and 5.76 μg equivalents/mL and 7.15 μg equivalents/mL
- Radioactivity in Whole Blood, Mean ± S.D. ([2]; 1 hr, male): 6.87 ± 1.50 μg equivalents/mL
- Radioactivity in Plasma, Individual Rats ([2]; 1 hr, male): 10.4 μg equivalents/mL and 8.90 μg equivalents/mL and 13.7 μg equivalents/mL
- Radioactivity in Plasma, Mean ± S.D. ([2]; 1 hr, male): 11.0 μg equivalents/mL and 11.0 ± 2.2 μg equivalents/mL
- Radioactivity in Whole Blood, Individual Rats ([2]; 1 hr, male): 6.11 μg equivalents/mL and 5.66 μg equivalents/mL and 8.85 μg equivalents/mL
- Radioactivity in Whole Blood, Mean ± S.D. ([2]; 4 hr, male): 0.88 ± 0.12 μg equivalents/mL
- Radioactivity in Plasma, Individual Rats ([2]; 4 hr, male): 1.59 μg equivalents/mL and 1.62 μg equivalents/mL and 1.22 μg equivalents/mL
- Radioactivity in Plasma, Mean ± S.D. ([2]; 4 hr, male): 1.48 μg equivalents/mL and 1.48 ± 0.20 μg equivalents/mL
- Radioactivity in Whole Blood, Individual Rats ([2]; 4 hr, male): 0.95 μg equivalents/mL and 0.96 μg equivalents/mL and 0.72 μg equivalents/mL
- Radioactivity in Whole Blood, Mean ± S.D. ([2]; 8 hr, female): 0.58 ± 0.07 μg equivalents/mL
- Radioactivity in Plasma, Individual Rats ([2]; 8 hr, female): 0.86 μg equivalents/mL and 0.82 μg equivalents/mL and 1.08 μg equivalents/mL
- Radioactivity in Plasma, Mean ± S.D. ([2]; 8 hr, female): 0.92 μg equivalents/mL and 0.92 ± 0.12 μg equivalents/mL
- Radioactivity in Whole Blood, Individual Rats ([2]; 8 hr, female): 0.59 μg equivalents/mL and 0.50 μg equivalents/mL and 0.66 μg equivalents/mL
- Radioactivity in Whole Blood, Mean ± S.D. ([2]; 8 hr, male): 0.59 ± 0.18 μg equivalents/mL
- Radioactivity in Plasma, Individual Rats ([2]; 8 hr, male): 0.53 μg equivalents/mL and 1.10 μg equivalents/mL and 1.05 μg equivalents/mL
- Radioactivity in Plasma, Mean ± S.D. ([2]; 8 hr, male): 0.89 μg equivalents/mL and 0.89 ± 0.27 μg equivalents/mL
- Radioactivity in Whole Blood, Individual Rats ([2]; 8 hr, male): 0.35 μg equivalents/mL and 0.71 μg equivalents/mL (2×)
- Radioactivity in Whole Blood, Mean ± S.D. ([2]; 24 hr, male): 0.07 ± 0.01 μg equivalents/mL
- Radioactivity in Plasma, Individual Rats ([2]; 24 hr, male): 0.07 μg equivalents/mL and 0.08 μg equivalents/mL and 0.05 μg equivalents/mL
- Radioactivity in Plasma, Mean ± S.D. ([2]; 24 hr, male): 0.07 μg equivalents/mL and 0.07 ± 0.01 μg equivalents/mL
- Radioactivity in Whole Blood, Individual Rats ([2]; 24 hr, male): 0.06 μg equivalents/mL and 0.08 μg equivalents/mL and 0.05 μg equivalents/mL
